From ChEMBL document CHEMBL1152441, “Discovery of [18F]N-(2-(diethylamino)ethyl)-6-fluoronicotinamide: a melanoma positron emission tomography imaging radiotracer with high tumor to body contrast ratio and rapid renal clearance” (J Med Chem, 2009)

Experiments:
[1] = tested on: Bone; assay: Biodistribution in bone of mouse B16F0 cells implanted C57BL/6J mouse assessed per gram of tissue at 0.4 to 5.5 MBq, iv after 0.25 hrs by gamma counter; type: ADME, organism-based, Bone element; conditions: in vivo
[2] = Biodistribution in eye of mouse B16F0 cells implanted C57BL/6J mouse assessed per gram of tissue at 0.4 to 5.5 MBq, iv after 6 hrs by gamma counter; type: ADME, organism-based; conditions: in vivo
[3] = tested on: Stomach; assay: Biodistribution in stomach of mouse B16F0 cells implanted C57BL/6J mouse assessed per gram of tissue at 0.4 to 5.5 MBq, iv after 1 hr by gamma counter; type: ADME, organism-based; conditions: in vivo
[4] = tested on: Lung; assay: Biodistribution in lung of mouse B16F0 cells implanted C57BL/6J mouse assessed per gram of tissue at 0.4 to 5.5 MBq, iv after 3 hrs by gamma counter; type: ADME, organism-based; conditions: in vivo
[5] = Lipophilicity, log P at pH 7.5; type: physicochemical; conditions: buffer
[6] = Biodistribution in eye of mouse B16F0 cells implanted C57BL/6J mouse assessed per gram of tissue at 0.4 to 5.5 MBq, iv after 1 hr by gamma counter; type: ADME, organism-based; conditions: in vivo
[7] = tested on: Thyroid gland; assay: Biodistribution in thyroid of mouse B16F0 cells implanted C57BL/6J mouse assessed per gram of tissue at 0.4 to 5.5 MBq, iv after 6 hrs by gamma counter; type: ADME, organism-based; conditions: in vivo
[8] = Biodistribution in tumor of mouse B16F0 cells implanted C57BL/6J mouse assessed per gram of tissue at 0.4 to 5.5 MBq, iv after 0.25 hrs by gamma counter; type: ADME, organism-based, Neoplasm; conditions: in vivo
[9] = tested on: Thyroid gland; assay: Biodistribution in thyroid of mouse B16F0 cells implanted C57BL/6J mouse assessed per gram of tissue at 0.4 to 5.5 MBq, iv after 3 hrs by gamma counter; type: ADME, organism-based; conditions: in vivo
[10] = tested on: Intestine; assay: Biodistribution in intestine of mouse B16F0 cells implanted C57BL/6J mouse assessed per gram of tissue at 0.4 to 5.5 MBq, iv after 3 hrs by gamma counter; type: ADME, organism-based; conditions: in vivo
[11] = tested on: Spleen; assay: Biodistribution in spleen of mouse B16F0 cells implanted C57BL/6J mouse assessed per gram of tissue at 0.4 to 5.5 MBq, iv after 6 hrs by gamma counter; type: ADME, organism-based; conditions: in vivo
[12] = tested on: Stomach; assay: Biodistribution in stomach of mouse B16F0 cells implanted C57BL/6J mouse assessed per gram of tissue at 0.4 to 5.5 MBq, iv after 3 hrs by gamma counter; type: ADME, organism-based; conditions: in vivo
[13] = tested on: Intestine; assay: Biodistribution in intestine of mouse B16F0 cells implanted C57BL/6J mouse assessed per gram of tissue at 0.4 to 5.5 MBq, iv after 6 hrs by gamma counter; type: ADME, organism-based; conditions: in vivo
[14] = tested on: Lung; assay: Biodistribution in lung of mouse B16F0 cells implanted C57BL/6J mouse assessed per gram of tissue at 0.4 to 5.5 MBq, iv after 6 hrs by gamma counter; type: ADME, organism-based; conditions: in vivo
[15] = Biodistribution in tumor of mouse B16F0 cells implanted C57BL/6J mouse assessed per gram of tissue at 0.4 to 5.5 MBq, iv after 6 hrs by gamma counter; type: ADME, organism-based, Neoplasm; conditions: in vivo
[16] = tested on: Bone; assay: Biodistribution in bone of mouse B16F0 cells implanted C57BL/6J mouse assessed per gram of tissue at 0.4 to 5.5 MBq, iv after 6 hrs by gamma counter; type: ADME, organism-based, Bone element; conditions: in vivo
[17] = Biodistribution in tumor of mouse B16F0 cells implanted C57BL/6J mouse assessed per gram of tissue at 0.4 to 5.5 MBq, iv after 3 hrs by gamma counter; type: ADME, organism-based, Neoplasm; conditions: in vivo
[18] = Biodistribution in tumor of mouse B16F0 cells implanted C57BL/6J mouse assessed per gram of tissue at 0.4 to 5.5 MBq, iv after 1 hr by gamma counter; type: ADME, organism-based, Neoplasm; conditions: in vivo
[19] = tested on: Spleen; assay: Biodistribution in spleen of mouse B16F0 cells implanted C57BL/6J mouse assessed per gram of tissue at 0.4 to 5.5 MBq, iv after 0.25 hrs by gamma counter; type: ADME, organism-based; conditions: in vivo
[20] = tested on: Lung; assay: Biodistribution in lung of mouse B16F0 cells implanted C57BL/6J mouse assessed per gram of tissue at 0.4 to 5.5 MBq, iv after 0.25 hrs by gamma counter; type: ADME, organism-based; conditions: in vivo
[21] = tested on: Intestine; assay: Biodistribution in intestine of mouse B16F0 cells implanted C57BL/6J mouse assessed per gram of tissue at 0.4 to 5.5 MBq, iv after 1 hr by gamma counter; type: ADME, organism-based; conditions: in vivo
[22] = tested on: Bone; assay: Biodistribution in bone of mouse B16F0 cells implanted C57BL/6J mouse assessed per gram of tissue at 0.4 to 5.5 MBq, iv after 1 hr by gamma counter; type: ADME, organism-based, Bone element; conditions: in vivo
[23] = tested on: Spleen; assay: Biodistribution in spleen of mouse B16F0 cells implanted C57BL/6J mouse assessed per gram of tissue at 0.4 to 5.5 MBq, iv after 3 hrs by gamma counter; type: ADME, organism-based; conditions: in vivo
[24] = Biodistribution in eye of mouse B16F0 cells implanted C57BL/6J mouse assessed per gram of tissue at 0.4 to 5.5 MBq, iv after 0.25 hrs by gamma counter; type: ADME, organism-based; conditions: in vivo
[25] = tested on: Lung; assay: Biodistribution in lung of mouse B16F0 cells implanted C57BL/6J mouse assessed per gram of tissue at 0.4 to 5.5 MBq, iv after 1 hr by gamma counter; type: ADME, organism-based; conditions: in vivo
[26] = tested on: Spleen; assay: Biodistribution in spleen of mouse B16F0 cells implanted C57BL/6J mouse assessed per gram of tissue at 0.4 to 5.5 MBq, iv after 1 hr by gamma counter; type: ADME, organism-based; conditions: in vivo
[27] = tested on: Stomach; assay: Biodistribution in stomach of mouse B16F0 cells implanted C57BL/6J mouse assessed per gram of tissue at 0.4 to 5.5 MBq, iv after 0.25 hrs by gamma counter; type: ADME, organism-based; conditions: in vivo
[28] = tested on: Thyroid gland; assay: Biodistribution in thyroid of mouse B16F0 cells implanted C57BL/6J mouse assessed per gram of tissue at 0.4 to 5.5 MBq, iv after 1 hr by gamma counter; type: ADME, organism-based; conditions: in vivo
[29] = tested on: Bone; assay: Biodistribution in bone of mouse B16F0 cells implanted C57BL/6J mouse assessed per gram of tissue at 0.4 to 5.5 MBq, iv after 3 hrs by gamma counter; type: ADME, organism-based, Bone element; conditions: in vivo
[30] = Biodistribution in eye of mouse B16F0 cells implanted C57BL/6J mouse assessed per gram of tissue at 0.4 to 5.5 MBq, iv after 3 hrs by gamma counter; type: ADME, organism-based; conditions: in vivo
[31] = tested on: Thyroid gland; assay: Biodistribution in thyroid of mouse B16F0 cells implanted C57BL/6J mouse assessed per gram of tissue at 0.4 to 5.5 MBq, iv after 0.25 hrs by gamma counter; type: ADME, organism-based; conditions: in vivo
[32] = tested on: Stomach; assay: Biodistribution in stomach of mouse B16F0 cells implanted C57BL/6J mouse assessed per gram of tissue at 0.4 to 5.5 MBq, iv after 6 hrs by gamma counter; type: ADME, organism-based; conditions: in vivo
[33] = tested on: Intestine; assay: Biodistribution in intestine of mouse B16F0 cells implanted C57BL/6J mouse assessed per gram of tissue at 0.4 to 5.5 MBq, iv after 0.25 hrs by gamma counter; type: ADME, organism-based; conditions: in vivo

In the case of CCN(CC)CCNC(=O)c1ccnc([18F])c1, the Drug uptake [1] is reported as 4%, the Drug uptake [2] is reported as 16.5% and the Drug uptake [3] is reported as 5.3%. For the same molecule, the Drug uptake [4] was 0.37%, the logD [5] was 1.22 and the Drug uptake [6] was 23.7%. It also gave a Drug uptake [7] of 1%, a Drug uptake [8] of 7% and a Drug uptake [9] of 1.5%. The Drug uptake [10] was 0.72%, the Drug uptake [11] was 1.3% and the Drug uptake [12] was 0.82%. The Drug uptake [13] was 0.23%, the Drug uptake [14] was 0.14% and the Drug uptake [15] was 7.2%. The Drug uptake [16] was 0.43%, the Drug uptake [17] was 8.8% and the Drug uptake [18] was 12.2%. It also gave a Drug uptake [19] of 10.3%, a Drug uptake [20] of 5.7% and a Drug uptake [21] of 2.9%. It also gave a Drug uptake [22] of 1.5%, a Drug uptake [23] of 2.3% and a Drug uptake [24] of 17.3%. It also gave a Drug uptake [25] of 1.8%, a Drug uptake [26] of 3.2% and a Drug uptake [27] of 13.2%. The Drug uptake [28] was 2.2%, the Drug uptake [29] was 0.77% and the Drug uptake [30] was 18.8%. It also gave a Drug uptake [31] of 4.8%, a Drug uptake [32] of 0.3% and a Drug uptake [33] of 7%.
Work on CCN(CC)CCNC(=O)c1cccnc1[18F] yielded a Drug uptake [1] of 4.8%, a Drug uptake [2] of 27.4% and a Drug uptake [3] of 6.8%. For the same molecule, the Drug uptake [4] was 0.35%, the logD [5] was 0.94 and the Drug uptake [6] was 38%. The Drug uptake [7] was 3.2%, the Drug uptake [8] was 10.6% and the Drug uptake [9] was 2.1%. For the same molecule, the Drug uptake [10] was 7.1%, the Drug uptake [11] was 0.5% and the Drug uptake [12] was 1.9%. For the same molecule, the Drug uptake [13] was 3.6%, the Drug uptake [14] was 0.2% and the Drug uptake [15] was 4.8%. For the same molecule, the Drug uptake [16] was 5.6%, the Drug uptake [17] was 17.3% and the Drug uptake [18] was 14.6%. It also gave a Drug uptake [19] of 11.8%, a Drug uptake [20] of 5% and a Drug uptake [21] of 7.1%. For the same molecule, the Drug uptake [22] was 3.4%, the Drug uptake [23] was 2.5% and the Drug uptake [24] was 36.7%. For the same molecule, the Drug uptake [25] was 1.5%, the Drug uptake [26] was 9.2% and the Drug uptake [27] was 14.7%. For the same molecule, the Drug uptake [28] was 2.2%, the Drug uptake [29] was 4.6% and the Drug uptake [30] was 36.3%. It also gave a Drug uptake [31] of 4.5%, a Drug uptake [32] of 0.7% and a Drug uptake [33] of 7.8%.
Work on CCCCN(C)CCCCNC(=O)c1ccc([18F])nc1 yielded a Drug uptake [1] of 3.89%, a Drug uptake [2] of 15.8% and a Drug uptake [3] of 3.3%. For the same molecule, the Drug uptake [4] was 3.1%, the logD [5] was 1.52 and the Drug uptake [6] was 12.7%. It also gave a Drug uptake [7] of 2%, a Drug uptake [8] of 4% and a Drug uptake [9] of 2.9%. For the same molecule, the Drug uptake [10] was 4.2%, the Drug uptake [11] was 4.1% and the Drug uptake [12] was 2.4%. The Drug uptake [13] was 3.1%, the Drug uptake [14] was 2.2% and the Drug uptake [15] was 5.3%. The Drug uptake [16] was 1%, the Drug uptake [17] was 5.3% and the Drug uptake [18] was 4.8%. It also gave a Drug uptake [19] of 11.2%, a Drug uptake [20] of 12.1% and a Drug uptake [21] of 5.8%. The Drug uptake [22] was 2%, the Drug uptake [23] was 5.3% and the Drug uptake [24] was 11.3%. For the same molecule, the Drug uptake [25] was 4.5%, the Drug uptake [26] was 7.4% and the Drug uptake [27] was 8.5%. For the same molecule, the Drug uptake [28] was 5.4%, the Drug uptake [29] was 1.4% and the Drug uptake [30] was 14.3%. For the same molecule, the Drug uptake [31] was 10.2%, the Drug uptake [32] was 1.8% and the Drug uptake [33] was 8.2%.
